# Patent US7030158B2, “Therapeutic compounds” (Ardenia Investments Ltd., priority 2002, dated 2006)
# Columns and labels:
# [1] = system: Human Breast Adenocarcinoma Cell Line MDA-MB-231; assay: Drug cytotoxicity testing (viable cell count, trypan blue exclusion) in MDA-MB-231 cultures; format: cell-based; conditions: for Tumor Cell Number: compound or drug alone 10^−7 mol/L (100 nM), medium with 5% FBS
# Protocol: MDA-MB-231 cells were propagated in MEM culture medium with 2 mM L-glutamine, 10% heat-inactivated fetal bovine serum (FBS) and antibiotics. DU 145 cells were cultured in MEM culture medium containing 2 mM L-glutamine, 1 mM sodium pyruvate, 10% FBS and antibiotics. SKOV-3 cells were cultured in McCoy's 5A culture medium, supplemented with 1,5 mM L-glutamine, 10% FBS and antibiotics. A549 cells were cultured in Ham's F-12 culture medium with 1 mM L-glutamine, 10% FBS and antibiotics.
# The cell cultures in cultivation plates were allowed to adhere for 24 hour of incubation. […] The cells were incubated for 2 consecutive days. At the end of the incubation period adherent cells were detached by trypsinization and the number of viable cells was counted using trypan blue exclusion test and a hemocytometer. All data were derived from an average of three determinations each in six replicates. The results were expressed as mean cell number±SE and the differences between control and test series evaluated by means of Student's t-test. The drug cytotoxicity was evaluated based on the extent of cell growth inhibition.
# Therefore an average of negative controls was calculated. […] Therefore an average of positive controls was calculated (for each antibiotic).
# rats = conditions: rat, in vivo, ip, 100 mg/kg
# Protocol: A single dose i.p. toxicity study in rats was carried out. […] The minimal lethal dose is thus above 100 mg/kg body weight for these compounds.
Compound,Tumor Cell Number [1],mortality (rats),also measured
CC1=C(/C=C/C(C)=C/C=C/C(C)=C\C(=O)N[C@@H](CS(=O)(=O)O)C(=O)OC(C)C)C(C)(C)CCC1 [II-1c],29.0 ± 1.26 × 10^3,–,–
"CC1=C(/C=C/C(C)=C/C=C/C(C)=C/C(=O)N[C@@H](CS(=O)O)C(=O)O)C(C)(C)CCC1 (stereo in doubt) [I-2, N-(all-trans-Retinoyl)-L-cysteinesulfinic acid]",–,did not produce mortality,–
COC(=O)[C@H](CCS(=O)(=O)O)NC(=O)/C=C(C)/C=C/C=C(C)/C=C/C1=C(C)CCCC1(C)C [I-3a],–,–,"cell growth inhibition achieved when increasing the concentration ([1]; compound (sodium salt) alone, concentration range 10^−9 to 10^−7 M, listed as II-3a): ~49%"
CCCCOC(=O)[C@H](CS(=O)(=O)O)NC(=O)\C=C(C)/C=C/C=C(C)/C=C/C1=C(C)CCCC1(C)C [II-1e],"(26.0 ± 1.27) × 10^3, cell growth inhibition",–,–
"CC1=C(/C=C/C(C)=C/C=C/C(C)=C\C(=O)N[C@@H](CCS(=O)(=O)O)C(=O)O)C(C)(C)CCC1 [II-3, N-(13-cis-Retinoyl)-L-homocysteic acid]",–,did not produce mortality,–
"CC1=C(/C=C/C(C)=C/C=C/C(C)=C/C(=O)N[C@@H](CS(=O)(=O)O)C(=O)O)C(C)(C)CCC1 [I-1, N-(all-trans-Retinoyl)-L-cysteic acid]",–,did not produce mortality,–
